Data from US20220009918A1, “Chemical Compounds” (GlaxoSmithKline Intellectual Property Development Limited, priority 2018, published 2022).

Target: T1, human H-PGDS (Homo sapiens, UniProt O60760)
T1 construct: Full length human H-PGDS cDNA (Invitrogen Ultimate ORF IOH13026) was amplified by PCR; 6-His (N); TEV protease cleavage site (N); made in house; host or cells: E. coli BL21 (DE3*) for H-PGDS; Sf9 insect cells (baculovirus) for COX-2
Assay: H-PGDS RapidFire high throughput mass spectrometry assay
Type: biochemical
Details: inhibition of conversion of PGH2 to PGD2 by H-PGDS; mean pIC50; read-out: Potency Range (mean pIC50) (converted)
Procedure: H-PGDS RapidFire™ High Throughput Mass Spectrometry Assay
The H-PGDS RapidFire™ mass spectrometric assay monitors conversion of prostaglandin H2 (PGH2) to prostaglandin D2 (PGD2) by haematopoietic prostaglandin D synthase (H-PGDS). In the assay format described here, the substrate (PGH2) is formed in situ by the action of cyclooxygenase-2 on arachidonic acid. This first step is set up to be fast, and generates a burst of PGH2 at ˜10 μM. The PGH2 is then further converted to PGD2 by the H-PGDS enzyme. […] Plates are then read on the RapidFire™ high throughput solid phase extraction system (Agilent) which incorporates a solid phase extraction step coupled to a triple quadrupole mass spectrometer (AB SCIEX). Relative levels of PGD2 and PGF2α, which acts as a surrogate for substrate, are measured and a percent conversion calculated. Inhibitors are characterised as compounds which lower the conversion of PGH2 to PGD2.
Full length human H-PGDS cDNA (Invitrogen Ultimate ORF IOH13026) was amplified by PCR with the addition of a 5′ 6-His tag and TEV protease cleavage site. The PCR product was digested with NdeI and XhoI and ligated into pET22b+ (Merck Novagen®). Expression was carried out in E. coli strain BL21 (DE3*) using auto-induction Overnight Express™ Instant TB medium (Merck Novagen®) supplemented with 1% glycerol. The culture was first grown at 37° C. and the temperature was reduced to 25° C. when OD600 reached 2.0. Cells were harvested by centrifugation after a further 18 hours. 10 g of E. coli cell pellet was suspended to a total volume of 80 mL in lysis buffer (20 mM Tris-Cl pH 7.5, 300 mM NaCl, 20 mM imidazole, 5 mM p-mercaptoethanol, 10% glycerol). 1 mg/mL protease inhibitors (Protease Inhibitor Cocktail Set III, Merck Calbiochem®) and 1 mg/mL lysozyme were added to the cell suspension. The suspension was then sonicated for 5 min (UltraSonic Processor VCX 750, Cole-Parmer Instrument Co.) with a micro probe (50% amplitude, 10 sec on/off) and then centrifuged at 100,000 g for 90 minutes (at 4° C.). The supernatant was loaded onto a Ni-NTA HiTrap column (5 mL, GE Healthcare, pre-equilibrated in lysis buffer). The column was washed with 10 column volumes of lysis buffer and eluted with lysis buffer containing 500 mM imidazole. The pooled protein peak fractions were concentrated using a 10 kDa centrifugal filter at 3500 g and 4° C. (Amicon Ultra-15 centrifugal filter unit with Ultracel-10 membrane from Millipore). Further purification of the concentrated protein was carried out using gel filtration chromatography on a HiLoad 26/600 Superdex 75 preparative grade column (GE Healthcare Life Sciences) using 50 mM Tris pH 7.5, 50 mM NaCl, 1 mM dithiothreitol, 1 mM MgCl2. Fractions containing the protein were pooled, concentrated as described above, and stored at −80° C.
The full length human COX-2 gene (accession number L15326) was amplified by PCR to generate an EcoRI—HindIII fragment containing an in-frame FLAG tag. This was subcloned into pFastBac 1 (Invitrogen). The COX-2 FLAG plasmid was recombined into the baculovirus genome according to the BAC-to-BAC protocol described by Invitrogen. Transfection into Spodoptera frugiperda (Sf9) insect cells was performed using Cellfectin (Invitrogen), according to the manufacturer's protocol. Super Sf9 cells were cultured in EX420 media (SAFC Biosciences) to a density of approximately 1.5×10^6 cells/mL within a wave bioreactor. Recombinant virus was added at a Multiplicity of Infection (MOI) of 5 and the culture was allowed to continue for 3 days. Cells were harvested using a continuous feed centrifuge run at 2500 g at a rate of approximately 2 L/min with cooling. The resultant cell slurry was re-centrifuged in pots (2500 g, 20 min, 4° C.) and the cell paste was stored at −80° C. […]

T1 sequence (O60760 whole entry): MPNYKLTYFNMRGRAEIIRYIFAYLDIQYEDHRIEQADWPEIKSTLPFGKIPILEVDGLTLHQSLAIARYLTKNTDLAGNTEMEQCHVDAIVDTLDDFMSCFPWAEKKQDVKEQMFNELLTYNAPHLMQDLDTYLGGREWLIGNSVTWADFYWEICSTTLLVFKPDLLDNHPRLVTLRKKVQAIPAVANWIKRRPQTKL

Row | SMILES | IC50 [nM]
1 | C[C@@H]1CNC(=O)[C@H]1NC(=O)c1cnc(-c2cc(F)cc(Cl)c2)s1 [Example 11, 2-(3-Chloro-5-fluorophenyl)-N-((3S,4R)-4-methyl-2-oxopyrrolidin-3-yl)thiazole-5-carboxamide] | 1.02 to 10
2 | O=C(N[C@H]1CCNC1=O)c1cnc(-c2cc(F)cc(C(F)F)c2)s1 [Example 12, (S)-2-(3-(Difluoromethyl)-5-fluorophenyl)-N-(2-oxopyrrolidin-3-yl)thiazole-5-carboxamide] | 1.02 to 10
3 | C[C@@H]1CNC(=O)[C@H]1NC(=O)c1cnc(-c2cc(F)cc(C(F)F)c2)s1 [Example 13, 2-(3-(Difluoromethyl)-5-fluorophenyl)-N-((3S,4R)-4-methyl-2-oxopyrrolidin-3-yl)thiazole-5-carboxamide] | 1.02 to 10
4 | NC(=O)CN1CC[C@H](NC(=O)c2cnc(-c3cc(F)cc(F)c3)s2)C1=O [Example 17, (S)-N-(1-(2-Amino-2-oxoethyl)-2-oxopyrrolidin-3-yl)-2-(3,5-difluorophenyl)thiazole-5-carboxamide] | 102 to 1000
5 | CC1(C)CNC(=O)[C@H]1NC(=O)c1cnc(-c2cc(F)cc(Cl)c2)s1 [Example 19, (S)-2-(3-Chloro-5-fluorophenyl)-N-(4,4-dimethyl-2-oxopyrrolidin-3-yl)thiazole-5-carboxamide] | 10.2 to 100
6 | O=C(N[C@H]1CC2(CC2)NC1=O)c1cnc(-c2cc(F)cc(Cl)c2)s1 [Example 21, (S)-2-(3-Chloro-5-fluorophenyl)-N-(5-oxo-4-azaspiro[2.4]heptan-6-yl)thiazole-5-carboxamide] | 1.02 to 10
7 | O=C(N[C@@H]1CC2(CC2)NC1=O)c1cnc(-c2cc(F)cc(Cl)c2)s1 [Example 22, (R)-2-(3-Chloro-5-fluorophenyl)-N-(5-oxo-4-azaspiro[2.4]heptan-6-yl)thiazole-5-carboxamide] | 102 to 1000
8 | CCC1(CC)CNC(=O)[C@@H]1NC(=O)c1cnc(-c2cc(F)cc(Cl)c2)s1 [Example 24, (R)-2-(3-Chloro-5-fluorophenyl)-N-(4,4-diethyl-2-oxopyrrolidin-3-yl)thiazole-5-carboxamide] | 1020 to 10000
9 | CCC1(CC)CNC(=O)[C@H]1NC(=O)c1cnc(-c2cc(F)cc(Cl)c2)s1 [Example 25, (S)-2-(3-Chloro-5-fluorophenyl)-N-(4,4-diethyl-2-oxopyrrolidin-3-yl)thiazole-5-carboxamide] | 10.2 to 100
10 | O=C(N[C@@H]1CCNC1=O)c1cnc(-c2cc(F)cc(Cl)c2)s1 [Example 26, (R)-2-(3-Chloro-5-fluorophenyl)-N-(2-oxopyrrolidin-3-yl)thiazole-5-carboxamide] | 102 to 1000
11 | O=C(N[C@@H]1CC2(CCC2)NC1=O)c1cnc(-c2cc(F)cc(Cl)c2)s1 [Example 28, (R)-2-(3-Chloro-5-fluorophenyl)-N-(6-oxo-5-azaspiro[3.4]octan-7-yl)thiazole-5-carboxamide] | 102 to 1000
12 | O=C(N[C@H]1CC2(CCC2)NC1=O)c1cnc(-c2cc(F)cc(Cl)c2)s1 [Example 29, (S)-2-(3-Chloro-5-fluorophenyl)-N-(6-oxo-5-azaspiro[3.4]octan-7-yl)thiazole-5-carboxamide] | 1.02 to 10
13 | Cc1nc(-c2cccc(Cl)c2)sc1C(=O)N[C@H]1CCNC1=O [Example 30, (S)-2-(3-Chlorophenyl)-4-methyl-N-(2-oxopyrrolidin-3-yl)thiazole-5-carboxamide] | 10.2 to 100
14 | Cc1cnn(-c2ncc(C(=O)N[C@H]3CCNC3=O)s2)c1 [Example 31, (S)-2-(4-Methyl-1H-pyrazol-1-yl)-N-(2-oxopyrrolidin-3-yl)thiazole-5-carboxamide] | 1020 to 10000
15 | Cc1cn(-c2ncc(C(=O)N[C@H]3CCNC3=O)s2)cn1 [Example 32, (S)-2-(4-Methyl-1H-imidazol-1-yl)-N-(2-oxopyrrolidin-3-yl)thiazole-5-carboxamide] | 1020 to 10000
16 | O=C(N[C@H]1CCNC1=O)c1cnc(-c2ccccc2)s1 [Example 33, (S)-N-(2-Oxopyrrolidin-3-yl)-2-phenylthiazole-5-carboxamide] | 10.2 to 100
17 | C[C@H]1[C@H](C)NC(=O)[C@@H]1NC(=O)c1cnc(-c2cc(F)cc(Cl)c2)s1 [Example 35, 2-(3-Chloro-5-fluorophenyl)-N-((3R,4S,5S)-4,5-dimethyl-2-oxopyrrolidin-3-yl)thiazole-5-carboxamide] | 102 to 1000
18 | C[C@H]1[C@H](NC(=O)c2cnc(-c3cc(F)cc(Cl)c3)s2)C(=O)N[C@@H]1C [Example 36, 2-(3-Chloro-5-fluorophenyl)-N-((3S,4R,5R)-4,5-dimethyl-2-oxopyrrolidin-3-yl)thiazole-5-carboxamide] | 10.2 to 100
19 | O=C(N[C@H]1CCNC1=O)c1cnc(-c2cccc(Br)c2)s1 [Example 37, (S)-2-(3-Bromophenyl)-N-(2-oxopyrrolidin-3-yl)thiazole-5-carboxamide] | 10.2 to 100
20 | O=C(N[C@H]1CCNC1=O)c1cnc(-c2ccncc2)s1 [Example 38, (S)-N-(2-Oxopyrrolidin-3-yl)-2-(pyridin-4-yl)thiazole-5-carboxamide] | 1020 to 10000
21 | O=C(N[C@H]1CCNC1=O)c1cnc(-c2ccccn2)s1 [Example 39, (S)-N-(2-Oxopyrrolidin-3-yl)-2-(pyridin-2-yl)thiazole-5-carboxamide] | 102 to 1000
22 | O=C(N[C@H]1CCNC1=O)c1cnc(-c2cccnc2)s1 [Example 40, (S)-N-(2-Oxopyrrolidin-3-yl)-2-(pyridin-3-yl)thiazole-5-carboxamide] | 102 to 1000
23 | C[C@H]1C[C@@H](NC(=O)c2cnc(-c3cc(F)cc(Cl)c3)s2)C(=O)N1 [Example 41, 2-(3-Chloro-5-fluorophenyl)-N-((3R,5S)-5-methyl-2-oxopyrrolidin-3-yl)thiazole-5-carboxamide] | 10.2 to 100
24 | Cc1ccnc(-c2ncc(C(=O)N[C@H]3CCNC3=O)s2)n1 [Example 42, (S)-2-(4-Methylpyrimidin-2-yl)-N-(2-oxopyrrolidin-3-yl)thiazole-5-carboxamide] | 102 to 1000
25 | N#Cc1cccc(-c2ncc(C(=O)N[C@H]3CCNC3=O)s2)c1 [Example 43, (S)-2-(3-Cyanophenyl)-N-(2-oxopyrrolidin-3-yl)thiazole-5-carboxamide] | 102 to 1000
26 | Cc1ccc(-c2ncc(C(=O)N[C@H]3CCNC3=O)s2)cc1 [Example 44, (S)-N-(2-Oxopyrrolidin-3-yl)-2-(p-tolyl)thiazole-5-carboxamide] | 1020 to 10000
27 | O=C(N[C@H]1CCNC1=O)c1cnc(-c2cccc(F)c2)s1 [Example 45, (S)-2-(3-Fluorophenyl)-N-(2-oxopyrrolidin-3-yl)thiazole-5-carboxamide] | 10.2 to 100
28 | Cc1cccc(-c2ncc(C(=O)N[C@H]3CCNC3=O)s2)n1 [Example 46, (S)-2-(6-Methylpyridin-2-yl)-N-(2-oxopyrrolidin-3-yl)thiazole-5-carboxamide] | 102 to 1000
29 | Cc1ccnc(-c2ncc(C(=O)N[C@H]3CCNC3=O)s2)c1 [Example 47, (S)-2-(4-Methylpyridin-2-yl)-N-(2-oxopyrrolidin-3-yl)thiazole-5-carboxamide] | 10.2 to 100
30 | Cc1cc(-c2ncc(C(=O)N[C@H]3CCNC3=O)s2)cc(C(F)F)c1 [Example 48, (S)-2-(3-(Difluoromethyl)-5-methylphenyl)-N-(2-oxopyrrolidin-3-yl)thiazole-5-carboxamide] | 10.2 to 100
